Measured values reported in PMC5321741, “Arylmethylamino steroids as antiparasitic agents” (Nature Communications, 2017).
Values joined by “and” are separate entries in the source; they are usually repeats but may differ in a detail not shown here. Equal entries are not always repeated. Structures can show the parent of a compound that is named as a salt. Where two headings read alike, the source gives them in different places.

Tests used:
[1] = tested on: P. falciparum (strain 3D7); assay: 72 h 3H-hypoxanthine incorporation assay, asexual blood stages; format: cell-based, Plasmodium falciparum; settings: Plasmodium falciparum
[2] = tested on: P. berghei GFP ANKA malaria strain; assay: P. berghei mouse model (Peter's test); format: in vivo, Plasmodium berghei in NMRI mice; settings: for % activity (reduction of parasitaemia) / % of control / Parasitized RBC over 100, Average / Parasitized RBC over 100, individual mice M1-M3: day 4
Protocol: The animal experiments described here were performed at the Swiss Tropical and Public Health Institute (Swiss TPH, Basel, Switzerland), they were approved by the Swiss Cantonal Authorities (‘Kantonales Veterinäramt Basel Stadt') adhering to local and national regulations of laboratory animal welfare in Switzerland. The best compounds were tested in the murine P. berghei model essentially as described. The infection was initiated at day 0 with the P. berghei GFP ANKA malaria strain (donation from AP Waters and CJ Janse, Leiden University). From donor mice (female NMRI mice, 18–20 grams (about 3 weeks) from Charles River Germany) with ∼30% parasitaemia, heparinized blood was taken and diluted in physiological saline to 10^8 parasitized erythrocytes/ml. An aliquot (0.2 ml) of this suspension was injected intravenously into experimental and control groups of mice (female NMRI mice, 18–20 grams (about 3 weeks) from Charles River Germany). Usually, in untreated control mice parasitaemia rose regularly to ∼30% by day 3 post-infection. Control mice died between days 6 and 7 post infection. In the experiments described here, however, control animals (n=5) were killed on day 4 post infection for ethical reasons.
The steroid compounds were prepared at an appropriate concentration as a solution/suspension in Tween 80/alcohol (7:3, Tween 80 and absolute ethanol, respectively), followed by a 10x dilution in water. […] The route of administration was i.p., p.o., s.c. in a volume of 10 ml kg^−1.
The degree of infection (parasitaemia expressed in % of infected erythrocytes) was determined by FACS analysis on day 4 (96 h post infection). The difference of the mean infection rate of the control group (=100%) to the test group was calculated and expressed as a percent reduction. For example, activity determination with a mean of 2% parasitaemia in treated mice and a mean of 40% parasitaemia in the control animals is calculated as follows: (40−2%)/40% × 100=95% activity. The survival time in days was recorded up to 30 days after infection. A compound was considered curative if the animal survived to day 30 after infection with no detectable parasites (confirmed by light microscopy).

[3] = tested on: adult Schistosoma mansoni; assay: schistosome in vitro culture with inhibitor treatment; format: cell-based
[4] = cytotoxicity on HeLa cells; format: cell-based; settings: human, HeLa cells
Protocol: (§1) Compounds were tested for their antiproliferative activity on HUVEC and K-562 cells and for cytotoxicity on HeLa cells using standard protocols. K-562 (DSM ACC 10), HUVEC (ATCC CRL-1730), and HeLa (DSM ACC 57) cells were cultured as described previously. To assay the antiproliferative and cytotoxic effect, procedures were carried out as described before. In brief, for each experiment with K-562 and HeLa ∼10,000 cells were seeded per well of the 96-well microplates. For the cytotoxicity assay, the HeLa cells were preincubated for 48 h without the test substances. Cells were incubated for 72 h at 37 °C in a humidified atmosphere and 5% CO2. Suspension cultures of K-562 in microplates were analysed by an electronic cell analyzer system CASY 1 (SCHÄRFE, Reutlingen, Germany). The monolayer of the HUVEC and HeLa cells were fixed by glutaraldehyde (MERCK) and stained with a 0.05% solution of methylene blue (SERVA). After gently washing, the stain was eluted by 0.2 ml of 0.33 N HCl in the wells. The optical densities were measured at 660 nm in a microplate reader. The calculations of the different values of GI50 and CC50 were performed with the software Magellan (TECAN).

HUVEC = assay: antiproliferative activity on HUVEC cells; format: cell-based; settings: Homo sapiens, HUVEC, 72 h
Protocol: as §1

K-562 = assay: antiproliferative activity on K-562 cells; format: cell-based; settings: Homo sapiens, K562, 72 h
Protocol: as §1

[5] = tested on: P. falciparum (strain 3D7); settings: read-out: IC50 of mefloquine; cited from earlier work
[6] = tested on: hGrx1-roGFP2 in P. falciparum 3D7; assay: cytosolic glutathione redox sensor in parasites; format: cell-based, Plasmodium falciparum; settings: 100 nM, 24 h
Protocol: To further study the mechanism of action of the steroid compounds and evaluate the potential involvement of redox stress, compound 1o was tested in cell culture on the chloroquine-sensitive P. falciparum 3D7 strain expressing the cytosolic glutathione redox sensor hGrx1-roGFP2 (Supplementary Note 2). […]
signals at 405/475 nm were calculated and plotted against time and/or concentration of compound 1o or redox active compounds. Data from three independent experiments were […]
100 µM for 4 h and 24 h incubations. Transfection of the Pf3D7 strain with the redox sensor was carried out, and the parasites were cultured as described under constant drug pressure with 5 nM WR99210 (Jacobus Pharmaceuticals, New Jersey, USA).45,46 P. falciparum trophozoites were enriched via magnet separation.47 Parasitemia was counted by using Giemsa-stained blood smears. The IC50 of compound 1o on P. falciparum 3D7 asexual blood stages was verified to be about 5 nM in an additional 72 h [3H] incorporation assay45 directly before the experiment. The effect of compound 1o on P. falciparum was investigated in 4 h and 24 h incubations. For 4 h experiments, trophozoite stage parasites (26-30 h post invasion) of 3D7[hGrx1-roGFP2] (6-8% parasitemia) were magnetically enriched (Miltenyi Biotec, Germany), counted by using the improved Neubauer hemocytometer (Brand GmbH, Germany), and returned to cell culture (at 0.5 x 10^6 trophozoites/µl) for at least 1 h to recover.
1.0 x 10^6 cells in 100 µl cell culture medium were placed into LoBind tubes (Eppendorf) for 4 h incubation experiments. The parasites were treated with compound 1o at 50 x, and 100 x IC and with mefloquine (MQ) as a standard antimalarial drug at 1 µM (IC = 8 nM)45 for 4 h […]
for 15 min at 37 °C. For 24 h experiments, a 5 ml culture (6-8% parasitemia) of ring stage parasites (6-10 h post invasion) was treated with compound 1o at 4 x, 10 x, 20 x IC50 and with 100 nM MQ. Prior to enrichment, cysteines were blocked with 2 mM NEM. For 4 h and 24 h experiments, cells were washed after incubation with pre-warmed Ringer’s solution […]
Hepes, 1 mM NaH2PO4, pH 7.4) and were seeded onto poly-L-lysine-coated µ-slides VI (Ibidi, Martinsried, Germany). A Leica confocal system TCS SP5 inverted microscope equipped with the objective HCX PL APO 63.0x1.30 GLYC 37 °C UV connected to a 37 °C temperature chamber was used. The argon laser power was set to 20%; scanning was performed at 400 Hz frequency and at a 512 × 512 pixel resolution. The smart gain and […]
smart offset were 950 V and -0.9%, respectively. With a sequential scan, we excited the sensor at 405 nm and at 488 nm and detected emissions at 500-550 nm. Laser intensity for both lines was adjusted to match the full dynamic range of the probe to the dynamic range of the detector (405 nm: 12%, 488 nm: 4%). Autofluorescence images were simultaneously taken at ex 405 nm / em 430-450 nm and individually defined together with the background for every image, but no fluorescence signal could be detected. All experiments included non- […]
and 10 mM DTT (2 min incubation), respectively, prior to blocking with NEM. Only parasites showing fluorescent signals at both 405 and 488 nm excitation and an intact host cell were chosen for analysis. Each experiment was carried out three times. At least 10 parasites were analyzed, resulting in at least 30 experimental values per incubation. The Leica LAS AF Lite software for fluorescence analysis was used. The 405/488 nm ratio was calculated. The obtained ratio values were normalized to the control ratio value, which was set to 100. The graphs were plotted using the GraphPad Prism 5 software (San Diego, CA, USA). One way-ANOVA test with 95% confidence intervals with the Dunnett’s Multiple Comparison Test was applied for statistical analysis of significance (*, p < 0.05; **, p < 0.01; ***, p < 0.001). […]
with 1 µM MQ. 24 h incubation (Supplementary Figure 8 panel B) with compound 1o resulted in a higher increase of the fluorescence ratio in a concentration-dependent manner. […]

Oc1ccccc1CNC1CCCC1 (as salt: perchlorate) [15c]
melting point: 168 to 169 °C

Oc1ccccc1CNC1CCCCC1 (as salt: perchlorate) [16c]
melting point: 152 to 153 °C

Oc1ccccc1CNC1CCCCCCC1 (as salt: perchlorate) [17c]
melting point: 136 to 138.5 °C

Oc1ccccc1CNc1ccccc1 (as salt: perchlorate) [19c]
melting point: 183 to 186 °C

COc1ccc2c(c1)CCC1C2CC[C@@]2(C)C1CC[C@H]2NCc1ccccc1O (stereo partly shown) [1c]
IC50 ([1]; 3D7, 72 h 3H-hypoxanthine incorporation, asexual blood stages, read-out: Antiplasmodial activity IC50 Pf (3D7)): 0.0074 µM | Mouse survival in days, Average ([2]; 3x 10 mg/kg p.o.): 9 days | Mouse survival in days, individual mice M1-M3 ([2]; 3x 10 mg/kg p.o.): 8 days and 11 days and 7 days | % activity (reduction of parasitaemia) ([2]; 3x 10 mg/kg p.o.): 47% | % of control ([2]; 3x 10 mg/kg p.o.): 53% | Parasitized RBC over 100, Average ([2]; 3x 10 mg/kg p.o.): 36 | Parasitized RBC over 100, individual mice M1-M3 ([2]; 3x 10 mg/kg p.o.): 28 and 26 and 53 | Mouse survival in days, Average ([2]; 3x 10 mg/kg s.c.): 7 days | Mouse survival in days, individual mice M1-M3 ([2]; 3x 10 mg/kg s.c.): 7 days and 6 days and 8 days | % activity (reduction of parasitaemia) ([2]; 3x 10 mg/kg s.c.): < 40% | % of control ([2]; 3x 10 mg/kg s.c.): 83% | Parasitized RBC over 100, Average ([2]; 3x 10 mg/kg s.c.): 56 | Parasitized RBC over 100, individual mice M1-M3 ([2]; 3x 10 mg/kg s.c.): 57 and 68 and 42 | Mouse survival in days, Average ([2]; 3x 30 mg/kg p.o.): 13 days | Mouse survival in days, individual mice M1-M3 ([2]; 3x 30 mg/kg p.o.): 13 days and 12 days and 14 days | % activity (reduction of parasitaemia) ([2]; 3x 30 mg/kg p.o.): 99.4% | % of control ([2]; 3x 30 mg/kg p.o.): 0.65% | Parasitized RBC over 100, Average ([2]; 3x 30 mg/kg p.o.): 0.44 | Parasitized RBC over 100, individual mice M1-M3 ([2]; 3x 30 mg/kg p.o.): 0.53 and 0.31 and 0.48 | Mouse survival in days, Average ([2]; 3x 30 mg/kg s.c.): 14 days | Mouse survival in days, individual mice M1-M3 ([2]; 3x 30 mg/kg s.c.): 14 days | % activity (reduction of parasitaemia) ([2]; 3x 30 mg/kg s.c.): 62% | % of control ([2]; 3x 30 mg/kg s.c.): 38% | Parasitized RBC over 100, Average ([2]; 3x 30 mg/kg s.c.): 26 | Parasitized RBC over 100, individual mice M1-M3 ([2]; 3x 30 mg/kg s.c.): 21 and 24 and 32 | Mouse survival in days, Average ([2]; 3x 100 mg/kg p.o.): 15 days | Mouse survival in days, individual mice M1-M3 ([2]; 3x 100 mg/kg p.o.): 15 days and 17 days and 14 days | % activity (reduction of parasitaemia) ([2]; 3x 100 mg/kg p.o.): 99.7% | % of control ([2]; 3x 100 mg/kg p.o.): 0.30% | Parasitized RBC over 100, Average ([2]; 3x 100 mg/kg p.o.): 0.20 | Parasitized RBC over 100, individual mice M1-M3 ([2]; 3x 100 mg/kg p.o.): 0.23 (2×) and 0.14 | morphological effects (confocal laser scanning microscopy) ([3]; 5 μM, 6–13 days): Aggregate-like degradation products of the gastrodermis occurred within the gut lumen | time to death of worms ([3]; 10 µM): 6 days | time to death of worms ([3]; 20 µM): 2 days | starting concentration with negative influence on worm physiology ([3]; pairing stability, egg production, survival, bright-field microscopy): 1 μM | CC50 at 72 h [4]: > 128 µM | GI50 (HUVEC): 17.1 µM | GI50 (K-562): 5.9 µM

Oc1ccccc1CNc1ccc2ccc3cccc4ccc1c2c34 [20c]
melting point: 160 to 163 °C | IC50 ([1]; 3D7, non-steroid-derived analogs, read-out: IC50 on P. falciparum 3D7 asexual blood stages): 5.6 µM

OC(c1cc(C(F)(F)F)nc2c(C(F)(F)F)cccc12)C1CCCCN1 (stereo not shown) [mefloquine, reference compound]
IC50 [5]: 0.008 µM | change of 405/488 nm fluorescence ratio [6]: 1.5 fold
